The values below come from patent US9650340B2, “5-fluoro-N-(pyridin-2-yl)pyridin-2-amine derivatives containing a sulfoximine group” (BAYER PHARMA AKTIENGESELLSCHAFT, priority 2012, dated 2017).

The term IC50 denotes the concentration that gives 50% inhibition. Higher therefore signals a need for much substance.

SMILES strings stand for the structures.

Assay [1] has as its target T1, CDK2/CycE (Homo sapiens, UniProt P24941).
T1 construct: GST; purchased ProQinase GmbH (Freiburg, Germany); host or cells: insect cells (Sf9)
Description: CDK2/CycE kinase assay (TR-FRET, 10 μM ATP). The assay is classed as biochemical. The conditions noted are these: Method 2 (2a). The text has this: 2a. CDK2/CycE Kinase Assay:
CDK2/CycE-inhibitory activity of compounds of the present invention was quantified employing the CDK2/CycE TR-FRET assay as described in the following paragraphs:
Recombinant fusion proteins of GST and human CDK2 and of GST and human CycE, expressed in insect cells (Sf9) and purified by Glutathion-Sepharose affinity chromatography, were purchased from ProQinase GmbH (Freiburg, Germany). As substrate for the kinase reaction biotinylated peptide biotin-Ttds-[…] (C-terminus in amid form) was used which can be purchased e.g. form the company JERINI Peptide Technologies (Berlin, Germany).
(§1) For the assay 50 nl of a 100 fold concentrated solution of the test compound in DMSO was pipetted into a black low volume 384 well microtiter plate (Greiner Bio-One, Frickenhausen, Germany), 2 μl of a solution of CDK2/CycE in aqueous assay buffer [50 mM Tris/HCl pH 8.0, 10 mM MgCl2, 1.0 mM dithiothreitol, 0.1 mM sodium ortho-vanadate, 0.01% (v/v) Nonidet-P40 (Sigma)] were added and the mixture was incubated for 15 min at 22° C. to allow pre-binding of the test compounds to the enzyme before the start of the kinase reaction. Then the kinase reaction was started by the addition of 3 μl of a solution of adenosine-tri-phosphate (ATP, 16.7 μM=>final conc. in the 5 μl assay volume is 10 μM) and substrate (1.25 μM=>final conc. in the 5 μl assay volume is 0.75 μM) in assay buffer and the resulting mixture was incubated for a reaction time of 25 min at 22° C. The concentration of CDK2/CycE was adjusted depending of the activity of the enzyme lot and was chosen appropriate to have the assay in the linear range, typical concentrations were in the range of 130 ng/mL The reaction was stopped by the addition of 5 μl of a solution of TR-FRET detection reagents (0.2 μM streptavidine-XL665 [Cisbio Bioassays, Codolet, France] and 1 nM anti-RB(pSer807/pSer811)-antibody from BD Pharmingen [#558389] and 1.2 nM LANCE EU-W1024 labeled anti-mouse IgG antibody [Perkin-Elmer, product no. AD0077]) in an aqueous EDTA-solution (100 mM EDTA, 0.2% (w/v) bovine serum albumin in 100 mM HEPES/NaOH pH 7.0).
(§2) The resulting mixture was incubated 1 h at 22° C. to allow the formation of complex between the phosphorylated biotinylated peptide and the detection reagents. Subsequently the amount of phosphorylated substrate was evaluated by measurement of the resonance energy transfer from the Eu-chelate to the streptavidine-XL. Therefore, the fluorescence emissions at 620 nm and 665 nm after excitation at 350 nm was measured in a TR-FRET reader, e.g. a Rubystar (BMG Labtechnologies, Offenburg, Germany) or a Viewlux (Perkin-Elmer). The ratio of the emissions at 665 nm and at 622 nm was taken as the measure for the amount of phosphorylated substrate.

Assay [2] concerns the target T1, CDK2/CycE. The assay is described as follows: CDK2/CycE high ATP kinase assay (TR-FRET, 2 mM ATP). The assay is classed as biochemical. The conditions noted are these: Method 2b. Here is the method: 2b. CDK2/CycE High ATP Kinase Assay:
CDK2/CycE-inhibitory activity of compounds of the present invention at 2 mM adenosine-tri-phosphate (ATP) was quantified employing the CDK2/CycE TR-FRET (TR-FRET=Time Resolved Fluorescence Energy Transfer) assay as described in the following paragraphs.
Recombinant fusion proteins of GST and human CDK2 and of GST and human CycE, expressed in insect cells (Sf9) and purified by Glutathion-Sepharose affinity chromatography, were purchase from ProQinase GmbH (Freiburg, Germany). As substrate for the kinase reaction biotinylated peptide biotin-Ttds-[…] (C-terminus in amid form) was used which can be purchased e.g. form the company JERINI peptide technologies (Berlin, Germany).
as §1, with “ATP (3.33 mM=>final” for “of adenosine-tri-phosphate (ATP, 16.7 μM=>final”, “2 mM)” for “10 μM)”, “15 ng/ml.” for “130 ng/mL”, “AD0077, as an alternative a Terbium-cryptate-labeled anti-mouse IgG antibody from Cisbio Bioassays can be used])” for “AD0077])”
as §2, with “350 nm were measured in” for “350 nm was measured in”
Background: Time-resolved FRET reads energy transfer from a long-lived donor to a nearby acceptor.

For `COc1cc(F)ccc1-c1cc(Nc2cc(CS(C)(=O)=NC(=O)C(F)(F)F)cc(C(F)(F)F)n2)ncc1F` (single isomer, unassigned; (+)) [Example 24, (+)-2,2,2-Trifluoro-N-[{[2-{[5-fluoro-4-(4-fluoro-2-methoxyphenyl)pyridin-2-yl]amino}-6-(trifluoromethyl)-pyridin-4-yl]methyl}(methyl)oxido-λ^6-sulfanylidene]acetamide], the figures for the IC50 against CDK2/CycE [1] and at CDK2/CycE [2] were 250 nM and 4000 nM, respectively.

In the case of `COc1cc(F)ccc1-c1cc(Nc2cc(CS(C)(=O)=NC(=O)C(F)(F)F)cc(C(F)(F)F)n2)ncc1F` (single isomer, unassigned; (-)) [Example 25, (−)-2,2,2-Trifluoro-N-[{[2-{[5-fluoro-4-(4-fluoro-2-methoxyphenyl)pyridin-2-yl]amino}-6-(trifluoromethyl)-pyridin-4-yl]methyl}(methyl)oxido-λ^6-sulfanylidene]acetamide], the IC50 was 110 nM on CDK2/CycE [1] and 2640 nM against CDK2/CycE [2].

Regarding `COc1cc(F)ccc1-c1cc(Nc2cc(CS(=N)(=O)CCO)ccn2)ncc1F` (racemic) [Example 8, (rac)-2-{S-[(2-{[5-Fluoro-4-(4-fluoro-2-methoxyphenyl)pyridin-2-yl]amino}pyridin-4-yl)methyl]sulfonimidoyl}ethanol], the IC50 turned out to be 430 nM against CDK2/CycE [1] and 4190 nM against CDK2/CycE [2].
